assay: (§1) The drug is tested on WLS-220 corresponding to human gut metagenome with ENA study accession number: PRJEB37062 and ENA sample accession number: ERS12561769 for biotransformation under anaerobic condition. The drug concentrations were measured over 9 timepoints collected between 0 and 24 hours of incubation by liquid-chromatography-coupled mass spectrometry (LC–MS); settings: 2 µM
Also: call rule not given here.

Bacterial Biotransformation | Structure (SMILES)
Compound metabolized | COc1ccc2[nH]c([S+]([O-])Cc3ncc(C)c(OC)c3C)nc2n1 (configuration not stated) [TENATOPRAZOLE]
Compound NOT metabolized | CN1CCc2cccc3c2[C@H]1Cc1ccc(O)c(O)c1-3 [APOMORPHINE]
Compound metabolized | COc1c2occc2cc2ccc(=O)oc12 [METHOXSALEN]

assay: as §1, with “WLS-052” for “WLS-220”, “ERS12561747” for “ERS12561769”; settings: 2 µM

Bacterial Biotransformation | Structure (SMILES)
Compound metabolized | COc1ccc2[nH]c([S+]([O-])Cc3ncc(C)c(OC)c3C)nc2n1 (configuration not stated) [TENATOPRAZOLE]
Compound metabolized | COc1c2occc2cc2ccc(=O)oc12 [METHOXSALEN]

settings: human gut metagenome, 24 h, 2 µM

Bacterial Biotransformation | Structure (SMILES)
Compound NOT metabolized | COc1ccc2[nH]c([S+]([O-])Cc3ncc(C)c(OC)c3C)nc2n1 (configuration not stated) [TENATOPRAZOLE]
Compound NOT metabolized | CN1CCc2cccc3c2[C@H]1Cc1ccc(O)c(O)c1-3 [APOMORPHINE]
Compound metabolized | COc1c2occc2cc2ccc(=O)oc12 [METHOXSALEN]

settings: human gut metagenome, 24 h, 2 µM; remark: another data set of the same source

Bacterial Biotransformation | Structure (SMILES)
Compound metabolized | COc1ccc2[nH]c([S+]([O-])Cc3ncc(C)c(OC)c3C)nc2n1 (configuration not stated) [TENATOPRAZOLE]
Compound NOT metabolized | CN1CCc2cccc3c2[C@H]1Cc1ccc(O)c(O)c1-3 [APOMORPHINE]
Compound metabolized | COc1c2occc2cc2ccc(=O)oc12 [METHOXSALEN]

settings: human gut metagenome, 24 h, 2 µM; remark: another data set of the same source

Bacterial Biotransformation | Structure (SMILES)
Compound metabolized | COc1ccc2[nH]c([S+]([O-])Cc3ncc(C)c(OC)c3C)nc2n1 (configuration not stated) [TENATOPRAZOLE]
Compound NOT metabolized | CN1CCc2cccc3c2[C@H]1Cc1ccc(O)c(O)c1-3 [APOMORPHINE]

settings: human gut metagenome, 24 h, 2 µM; remark: another data set of the same source

Bacterial Biotransformation | Structure (SMILES)
Compound metabolized | COc1ccc2[nH]c([S+]([O-])Cc3ncc(C)c(OC)c3C)nc2n1 (configuration not stated) [TENATOPRAZOLE]
Compound NOT metabolized | CN1CCc2cccc3c2[C@H]1Cc1ccc(O)c(O)c1-3 [APOMORPHINE]
Compound metabolized | COc1c2occc2cc2ccc(=O)oc12 [METHOXSALEN]

settings: human gut metagenome, 24 h, 2 µM; remark: another data set of the same source

Bacterial Biotransformation | Structure (SMILES)
Compound NOT metabolized | COc1ccc2[nH]c([S+]([O-])Cc3ncc(C)c(OC)c3C)nc2n1 (configuration not stated) [TENATOPRAZOLE]
Compound NOT metabolized | CN1CCc2cccc3c2[C@H]1Cc1ccc(O)c(O)c1-3 [APOMORPHINE]

assay: as §1, with “Z-006” for “WLS-220”, “mouse” for “human”, “ERS12561806” for “ERS12561769”; settings: 2 µM

Bacterial Biotransformation | Structure (SMILES)
Compound metabolized | COc1ccc2[nH]c([S+]([O-])Cc3ncc(C)c(OC)c3C)nc2n1 (configuration not stated) [TENATOPRAZOLE]
Compound metabolized | COc1c2occc2cc2ccc(=O)oc12 [METHOXSALEN]

settings: human gut metagenome, 24 h, 2 µM; remark: another data set of the same source

Bacterial Biotransformation | Structure (SMILES)
Compound NOT metabolized | COc1ccc2[nH]c([S+]([O-])Cc3ncc(C)c(OC)c3C)nc2n1 (configuration not stated) [TENATOPRAZOLE]
Compound NOT metabolized | CN1CCc2cccc3c2[C@H]1Cc1ccc(O)c(O)c1-3 [APOMORPHINE]

settings: human gut metagenome, 24 h, 2 µM; remark: another data set of the same source

Bacterial Biotransformation | Structure (SMILES)
Compound NOT metabolized | CN1CCc2cccc3c2[C@H]1Cc1ccc(O)c(O)c1-3 [APOMORPHINE]
Compound metabolized | COc1c2occc2cc2ccc(=O)oc12 [METHOXSALEN]

assay: as §1, with “WLS-350” for “WLS-220”, “ERS12561789” for “ERS12561769”; settings: 2 µM

Bacterial Biotransformation | Structure (SMILES)
Compound NOT metabolized | COc1ccc2[nH]c([S+]([O-])Cc3ncc(C)c(OC)c3C)nc2n1 (configuration not stated) [TENATOPRAZOLE]
Compound NOT metabolized | CN1CCc2cccc3c2[C@H]1Cc1ccc(O)c(O)c1-3 [APOMORPHINE]
Compound metabolized | COc1c2occc2cc2ccc(=O)oc12 [METHOXSALEN]

assay: as §1, with “Z-005” for “WLS-220”, “to” for “to human gut”, “ERS12561805” for “ERS12561769”; settings: 2 µM

Bacterial Biotransformation | Structure (SMILES)
Compound metabolized | COc1ccc2[nH]c([S+]([O-])Cc3ncc(C)c(OC)c3C)nc2n1 (configuration not stated) [TENATOPRAZOLE]
Compound metabolized | COc1c2occc2cc2ccc(=O)oc12 [METHOXSALEN]

settings: human gut metagenome, 24 h, 2 µM; remark: another data set of the same source

Bacterial Biotransformation | Structure (SMILES)
Compound metabolized | COc1ccc2[nH]c([S+]([O-])Cc3ncc(C)c(OC)c3C)nc2n1 (configuration not stated) [TENATOPRAZOLE]
Compound NOT metabolized | CN1CCc2cccc3c2[C@H]1Cc1ccc(O)c(O)c1-3 [APOMORPHINE]
Compound metabolized | COc1c2occc2cc2ccc(=O)oc12 [METHOXSALEN]

settings: human gut metagenome, 24 h, 2 µM; remark: another data set of the same source

Bacterial Biotransformation | Structure (SMILES)
Compound metabolized | COc1ccc2[nH]c([S+]([O-])Cc3ncc(C)c(OC)c3C)nc2n1 (configuration not stated) [TENATOPRAZOLE]
Compound NOT metabolized | CN1CCc2cccc3c2[C@H]1Cc1ccc(O)c(O)c1-3 [APOMORPHINE]
Compound metabolized | COc1c2occc2cc2ccc(=O)oc12 [METHOXSALEN]

assay: as §1, with “Z-022” for “WLS-220”, “mouse” for “human”, “ERS12561821” for “ERS12561769”; settings: 2 µM

Bacterial Biotransformation | Structure (SMILES)
Compound NOT metabolized | COc1ccc2[nH]c([S+]([O-])Cc3ncc(C)c(OC)c3C)nc2n1 (configuration not stated) [TENATOPRAZOLE]
Compound NOT metabolized | CN1CCc2cccc3c2[C@H]1Cc1ccc(O)c(O)c1-3 [APOMORPHINE]
Compound NOT metabolized | COc1c2occc2cc2ccc(=O)oc12 [METHOXSALEN]

assay: as §1, with “WLS-069” for “WLS-220”, “ERS12561748” for “ERS12561769”; settings: 2 µM

Bacterial Biotransformation | Structure (SMILES)
Compound metabolized | COc1ccc2[nH]c([S+]([O-])Cc3ncc(C)c(OC)c3C)nc2n1 (configuration not stated) [TENATOPRAZOLE]
Compound NOT metabolized | CN1CCc2cccc3c2[C@H]1Cc1ccc(O)c(O)c1-3 [APOMORPHINE]
Compound metabolized | COc1c2occc2cc2ccc(=O)oc12 [METHOXSALEN]

assay: as §1, with “Z-004” for “WLS-220”, “to” for “to human gut”, “ERS12561804” for “ERS12561769”; settings: 2 µM

Bacterial Biotransformation | Structure (SMILES)
Compound metabolized | COc1ccc2[nH]c([S+]([O-])Cc3ncc(C)c(OC)c3C)nc2n1 (configuration not stated) [TENATOPRAZOLE]
Compound metabolized | COc1c2occc2cc2ccc(=O)oc12 [METHOXSALEN]

assay: as §1, with “Z-017” for “WLS-220”, “mouse” for “human”, “ERS12561816” for “ERS12561769”; settings: 2 µM

Bacterial Biotransformation | Structure (SMILES)
Compound metabolized | COc1ccc2[nH]c([S+]([O-])Cc3ncc(C)c(OC)c3C)nc2n1 (configuration not stated) [TENATOPRAZOLE]
Compound NOT metabolized | CN1CCc2cccc3c2[C@H]1Cc1ccc(O)c(O)c1-3 [APOMORPHINE]
Compound metabolized | COc1c2occc2cc2ccc(=O)oc12 [METHOXSALEN]

settings: human gut metagenome, 24 h, 2 µM; remark: another data set of the same source

Bacterial Biotransformation | Structure (SMILES)
Compound metabolized | COc1ccc2[nH]c([S+]([O-])Cc3ncc(C)c(OC)c3C)nc2n1 (configuration not stated) [TENATOPRAZOLE]
Compound NOT metabolized | CN1CCc2cccc3c2[C@H]1Cc1ccc(O)c(O)c1-3 [APOMORPHINE]
Compound metabolized | COc1c2occc2cc2ccc(=O)oc12 [METHOXSALEN]

assay: as §1, with “Z-029” for “WLS-220”, “rat” for “human”, “ERS12561828” for “ERS12561769”; settings: 2 µM

Bacterial Biotransformation | Structure (SMILES)
Compound metabolized | COc1ccc2[nH]c([S+]([O-])Cc3ncc(C)c(OC)c3C)nc2n1 (configuration not stated) [TENATOPRAZOLE]
Compound NOT metabolized | CN1CCc2cccc3c2[C@H]1Cc1ccc(O)c(O)c1-3 [APOMORPHINE]
Compound NOT metabolized | COc1c2occc2cc2ccc(=O)oc12 [METHOXSALEN]
